Measurements as given in patent publication US11999782B2, “Therapeutic agents for the treatment of diseases associated with undesired cell proliferation” (Fundació Privada Institutció Catalana de Recerca I Estudis …, priority 2009, dated 2024).

Columns and labels:
[1] = system: LIF expression in GBM neurospheres; experiment: LIF mRNA by qRT-PCR in GBM neurospheres; assay type: cell-based, human; settings: 3 hours; for LIF transcript in neurospheres derived from patients: 100 pM, medium without serum
Protocol: FIG. 3. TGFβ induces the expression of LIF in PCTC and GBM neurospheres. (A) PCTC cells of the 11 samples of the indicated GEM (GBM1-11) were treated with 100 pM TGFβ1 for 3 hours in medium without serum or left untreated, and the expression levels of LIF were determined by means of qRT-PCR. The g-actin was determined as an internal normalization control. (B) GBM neurosphere cells were treated as in A and the expression levels of LIF were determined by means of qRT-PCR as in A. (C) GBM neurospheres were incubated with 100 pM TGFβ1 and/or 2 μM TβRI inhibitor for 3 hours in medium without serum and the mRNA levels of LIF were determined by means of qRT-PCR as in A. (D) GBM1 neurospheres were incubated with 100 pM TGFβ1, TGFβ2 and TGFβ3 for 3 hours in medium without serum and the mRNA levels of LIF were determined by means of qRT-PCR as in A. (E) The levels of LIF protein secreted were determined by means of ELISA in GBM1 neurospheres after 48 hours of treatment with 100 pM TGFβ1.
(§1) The U373MG and A172 cells were a generous gift from J. Rich and D. Bigner and were cultured in DMEM with 10% fetal bovine serum (FBS). The primary culture of tumor cells (PCTC) and the GBM neurospheres were generated as described (Bruna et al., (2007) Cancer Cell 11, 147-160; Gunther et al., (2008) Oncogene. May 1; 27(20):2897-909). Briefly, the samples of tumors were processed in the 30 minutes after the surgical resection. The ground pieces of the samples of human gliomas were digested with 200 U/ml collagenase I (Sigma) and 500 U/ml of DNase I (Sigma) in PBS for 2 hours at 37° C. and with constant vigorous stirring. The suspension of individual cells was filtered through a 70 μm cell filter (BD Falcon) and washed with PBS. Finally, the cells were resuspended and subsequently cultured in DMEM with 10% FBS, for the culture of PCTCs, or in neurosphere medium in the case of the GBM neurospheres. The neurospheres of normal human neuroprogenitors were generated from human embryonic cerebral cortex tissue (12-16 weeks after the conception) collected after voluntary abortions. The samples were processed and cultured as described (Poltavtseva et al. (2002) Brain Res Dev Brain Res 134, 149-154). The neurosphere medium consists of neurobasal medium (Gibco) supplemented with B27 (Gibco), L-glutamine (Gibco), penicillin/streptomycin, and growth factors (20 ng/mL EGF and 20 ng/mL FGF-2 (Peprotech)).
qRT-PCR was performed using Taqman probes from Applied Biosystems, according to the manufacturer's recommendations. The reactions were carried out in a ABI 7000 sequence detector (Perkin Elmer) and the results were expressed as the fold change calculated by means of the DDCt method relative to the control sample or the first quantified sample. The ribosomal unit of 18S or β-actin were used as internal normalization controls.
It was decided to investigate the molecular mechanisms responsible for the effect of TGFβ on GICs. Gene responses to TGFβ in GBM cells which could be involved in the regulation of the self-renewal of GICs were investigated. In a previous work (Bruna et al., 2007), transcriptome analyses were conducted in the U373MG glioma cell line treated with TGFβ and/or a TβRI inhibitor. LIF was among the 63 gene responses to TGFβ in U373MG which were dependent on the activity of TβRI. […] A panel of PCTCs derived from 11 different human GBMs was treated with TGFβ for 3 hours and the levels of LIF mRNA were determined.

[2] = system: normal human neuroprogenitors; experiment: Self-renewal assay of normal human neuroprogenitor neurospheres; assay type: cell-based; settings: 100 pM TGFβ1 or 20 ng/ml LIF, 7 days
Protocol: FIG. 8. Effect of TGFβ on the capacity of self-renewal of normal human neuroprogenitors. (A) Immunocytochemistry of the indicated markers was performed in human neuroprogenitor neurospheres. (B) Neurospheres of the sample of GBM1 and of human neuroprogenitors were incubated with the indicated members of the 100 pM TGFβ family for 3 hours and the mRNA levels of LIF were determined. (C, D) Neurosphere cells of normal human neuroprogenitors were incubated in the same conditions that have been described above in FIG. 1D in the presence of 100 pM TGFβ1 or 20 ng/ml LIF for 7 days and the number of newly formed neurospheres (C) and the number total of cells (D) were determined.
as §1
The self-renewal of the neurospheres was evaluated by seeding an identical number of cells at a very low density in wells of a 96-well plate. The cells were treated, in the absence of growth factors, with the indicated compounds and the total number of new neurospheres formed after 7 days in culture was counted (Lee et al. (2008) Cancer Cell 13, 69-80; Reynolds and Weiss, (1996) Dev Biol 175, 1-13; Seaberg and van der Kooy, (2002) J Neurosci 22, 1784-1793).
It was decided to assess whether this effect was specific to tumor cells or was also present in normal neuroprogenitor cells. To answer this question, neuroprogenitor cells were obtained from samples of human fetal cerebral cortex (from 12 to 16 weeks after conception). As has been previously described (Carpenter et al., 1999, Exp Neurol, 158: 265-278; Poltavtseva et al., 2002, Brain Res Dev Brain Res, 134: 149-154; Wright et al., 2003, J Neurochem, 86: 179-195), human neuroprogenitors generated neurospheres when they were grown in serum-free medium supplemented with EGF and FGF and these neurospheres expressed Musashi-1, Sox2 and Nestin similarly to GBM neurospheres (FIG. 8A). First, it was determined if TGFβ induced LIF in normal human neuroprogenitors. […] In fact, the neurospheres treated with TGFβ were smaller and the total number of cells had decreased due to the presence of TGFβ (FIG. 8C, 8D). On the other hand, LIF increased the number and size of the newly formed neurospheres as well as the total number of cells (FIG. 8C, 8D) according to previous articles (Bauer and Patterson, 2006; Wright et al., 2003). Thus, LIF has the same effect on the self-renewal in GBM and normal neurospheres. On the contrary, there is a difference in the effect of TGFβ on the capacity for self-renewal of normal and tumor neurospheres due to the incapacity of TGFβ to induce LIF normal in neuroprogenitors.

Row | Compound | effect on the induction of LIF by TGFβ ([1]; GBM neurospheres, 100 pM TGFβ1 with 2 μM TβRI inhibitor) | number of newly formed neurospheres (normal neuroprogenitors) [2] | size of neurospheres (normal neuroprogenitors) [2] | total number of cells (normal neuroprogenitors) [2] | LIF transcript in neurospheres derived from patients [1] | LIF transcript in neurospheres derived from patients ([1]; listed as TGFβ1)
1 | NC(=O)c1ccc(-c2nc(-c3ccc4c(c3)OCO4)c(-c3ccccn3)[nH]2)cc1 [TβRI inhibitor, SB431542, reference compound] | blocked | – | – | – | – | –
2 | LIF: recombinant leukemia inhibitory factor, an IL-6 type cytokine (Chemicon) | – | increased | increased | increased | – | –
3 | TGFβ: TGFβ1 (R&D Systems), used at 100 pM according to the figure legends | – | did not increase | smaller | decreased | capable of inducing the LIF transcript | capable of inducing LIF
